Results: ChEMBL document CHEMBL1201862, “PubChem BioAssay data set” (2004)
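Results reflect a 48-hour exposure of cells in 96-well plates to compound at five concentrations. The concentration for 50% growth inhibition is given as GI50.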 Calls of active or inactive are those of the source. Rule as the data show it: active = GI50 up to about 1.1 µM and inactive = higher.

Tests used:
Experiment in all cases: NCI-60 cell line screen, 48 h
BT-549 = test system: BT-549
CAKI-1 = test system: CAKI-1
HOP-92 = test system: HOP-92
HT-29 = test system: HT-29
Hs-578T = test system: Hs-578T
IGROV-1 = test system: IGROV-1
K562 = test system: K562
MDA-N = test system: MDA-N
NCI-H226 = test system: NCI-H226
NCI-H23 = test system: NCI-H23
NCI-H460 = test system: NCI-H460
NCI-H522 = test system: NCI-H522
OVCAR-3 = test system: OVCAR-3
PC-3 = test system: PC-3
SF-295 = test system: SF-295
SF-539 = test system: SF-539
SN12C = test system: SN12C
TK-10 = test system: TK-10
UACC-62 = test system: UACC-62
UO-31 = test system: UO-31

SMILES | GI50 (BT-549) | GI50 (CAKI-1) | GI50 (HOP-92) | GI50 (HT-29) | GI50 (Hs-578T) | GI50 (IGROV-1) | GI50 (K562) | GI50 (MDA-N) | GI50 (NCI-H226) | GI50 (NCI-H23) | GI50 (NCI-H460) | GI50 (NCI-H522) | GI50 (OVCAR-3) | GI50 (PC-3) | GI50 (SF-295) | GI50 (SF-539) | GI50 (SN12C) | GI50 (TK-10) | GI50 (UACC-62) | GI50 (UO-31)
O=C(NCCCCCN1CCC2(CCCCC2)CC1)C(C1CCCCC1)C1CCCCC1 | 5.87 µM (inactive) | 4.1 µM (inactive) | 3.73 µM (inactive) | 1.97 µM (inactive) | 3.05 µM (inactive) | 4.24 µM (inactive) | 1.52 µM (inactive) | 1.84 µM (inactive) | 3.67 µM (inactive) | 3.1 µM (inactive) | 2.45 µM (inactive) | 4.17 µM (inactive) | 4.17 µM (inactive) | 2.77 µM (inactive) | 1.88 µM (inactive) | 1.91 µM (inactive) | 3.55 µM (inactive) | 4.71 µM (inactive) | 2.48 µM (inactive) | 3.61 µM (inactive)
O=C(NCP(=O)(c1ccccc1)c1ccccc1)OCc1ccccc1 | > 100 µM (inactive) | > 100 µM (inactive) | 40 µM (inactive) | > 100 µM (inactive) | 43.6 µM (inactive) | > 100 µM (inactive) | > 100 µM (inactive) | > 100 µM (inactive) | > 100 µM (inactive) | > 100 µM (inactive) | > 100 µM (inactive) | 39.4 µM (inactive) | 54.3 µM (inactive) | 64.3 µM (inactive) | 58.6 µM (inactive) | > 100 µM (inactive) | > 100 µM (inactive) | > 100 µM (inactive) | > 100 µM (inactive) | > 100 µM (inactive)
O=C(O)C1C2CC3C(OC(=O)C31)C2Br (stereo not given) | > 100 µM (inactive) | > 100 µM (inactive) | > 100 µM (inactive) | > 100 µM (inactive) | > 100 µM (inactive) | > 100 µM (inactive) | > 47.8 µM (inactive) | > 100 µM (inactive) | > 100 µM (inactive) | > 100 µM (inactive) | > 100 µM (inactive) | > 100 µM (inactive) | > 100 µM (inactive) | > 100 µM (inactive) | > 100 µM (inactive) | > 100 µM (inactive) | > 100 µM (inactive) | > 100 µM (inactive) | > 100 µM (inactive) | > 100 µM (inactive)
Cc1c(C)c(S(=O)(=O)N(CCCCCON)OCCCN)c(C)c2c1OC(C)(C)CC2 | 15.5 µM (inactive) | 6.41 µM (inactive) | 10.3 µM (inactive) | 9.89 µM (inactive) | 19.3 µM (inactive) | 10 µM (inactive) | 3.94 µM (inactive) | 14.3 µM (inactive) | 17.9 µM (inactive) | 15.6 µM (inactive) | 9.93 µM (inactive) | 17.7 µM (inactive) | 14.5 µM (inactive) | 13.2 µM (inactive) | 15.2 µM (inactive) | 15.2 µM (inactive) | 15.4 µM (inactive) | 14.3 µM (inactive) | 14.3 µM (inactive) | 16.6 µM (inactive)
Cn1c2c(c3ccccc31)CC1c3c(c4ccccc4n3C)CC21 (stereo not given) | > 100 µM (inactive) | > 100 µM (inactive) | > 100 µM (inactive) | > 100 µM (inactive) | > 100 µM (inactive) | > 100 µM (inactive) | > 100 µM (inactive) | > 100 µM (inactive) | > 100 µM (inactive) | > 100 µM (inactive) | > 100 µM (inactive) | > 100 µM (inactive) | > 100 µM (inactive) | > 100 µM (inactive) | > 100 µM (inactive) | > 100 µM (inactive) | > 100 µM (inactive) | > 100 µM (inactive) | > 100 µM (inactive) | > 100 µM (inactive)
COc1ccc(CNc2nc3ccccc3nc2C(=O)O)cc1 | > 100 µM (inactive) | > 100 µM (inactive) | 70.5 µM (inactive) | > 100 µM (inactive) | > 100 µM (inactive) | > 100 µM (inactive) | 93.3 µM (inactive) | > 100 µM (inactive) | > 100 µM (inactive) | > 100 µM (inactive) | 55.5 µM (inactive) | 72.9 µM (inactive) | > 100 µM (inactive) | > 100 µM (inactive) | 51.4 µM (inactive) | > 100 µM (inactive) | > 100 µM (inactive) | > 100 µM (inactive) | > 100 µM (inactive) | 39 µM (inactive)
O=C1C2C3C=CC(C2C(=O)N1CN1CCOCC1)C1C2C(=O)N(CN4CCOCC4)C(=O)C2C31 (stereo not given) | > 100 µM (inactive) | > 68.2 µM (inactive) | > 62.1 µM (inactive) | > 60 µM (inactive) | > 100 µM (inactive) | > 56 µM (inactive) | 25.8 µM (inactive) | > 100 µM (inactive) | > 47.3 µM (inactive) | > 47.9 µM (inactive) | > 37.5 µM (inactive) | > 40 µM (inactive) | > 55.7 µM (inactive) | > 100 µM (inactive) | > 62.2 µM (inactive) | > 56.8 µM (inactive) | > 44.7 µM (inactive) | > 55.3 µM (inactive) | > 47 µM (inactive) | > 54 µM (inactive)
COc1ccc(C2OC(=O)c3ccc4ccccc4c32)c(C)c1 (stereo not given) | 19.5 µM (inactive) | 13.3 µM (inactive) | 10.9 µM (inactive) | 3.78 µM (inactive) | 10.2 µM (inactive) | 5.51 µM (inactive) | 3.55 µM (inactive) | 2 µM (inactive) | 13.9 µM (inactive) | 9.53 µM (inactive) | 4.18 µM (inactive) | 4.42 µM (inactive) | 6.44 µM (inactive) | 9.08 µM (inactive) | 2.98 µM (inactive) | 12.2 µM (inactive) | 10.1 µM (inactive) | 15.2 µM (inactive) | 6.93 µM (inactive) | 8.97 µM (inactive)
O=C(O)c1cccc(S(=O)(=O)NN2C(=O)CSC2c2ccc(Cl)cc2Cl)c1 (stereo not given) | 29.1 µM (inactive) | > 100 µM (inactive) | > 100 µM (inactive) | 32.5 µM (inactive) | 19 µM (inactive) | > 100 µM (inactive) | 24 µM (inactive) | 24.7 µM (inactive) | 35.4 µM (inactive) | 40.2 µM (inactive) | 41.3 µM (inactive) | 24.7 µM (inactive) | 36.1 µM (inactive) | 94.2 µM (inactive) | 51.6 µM (inactive) | 19.5 µM (inactive) | 25.8 µM (inactive) | > 100 µM (inactive) | 28.6 µM (inactive) | > 100 µM (inactive)
OCC1OC(n2cnc3c(/C=C(/O)c4ccccc4)ncnc32)C(O)C1O (stereo not given) | 6.08 µM (inactive) | 3.11 µM (inactive) | > 25.1 µM (inactive) | 3.1 µM (inactive) | 14.4 µM (inactive) | 0.927 µM (active) | 2.83 µM (inactive) | 4.89 µM (inactive) | 5.38 µM (inactive) | 2.82 µM (inactive) | 0.594 µM (active) | 2.16 µM (inactive) | 2.77 µM (inactive) | 4.04 µM (inactive) | 5.13 µM (inactive) | 4.93 µM (inactive) | 3.19 µM (inactive) | 0.516 µM (active) | 8.3 µM (inactive) | 0.92 µM (active)
